Measured values as given in publication PMC8509705, “Liquid-Liquid Chromatography Separation of Guaiane-Type Sesquiterpene Lactones from Ferula penninervis Regel & Schmalh. and Evaluation of Their In Vitro Cytotoxic and Melanin Inhibitory Potential” (International Journal of Molecular Sciences, 2021).
Values after ≈ are worked out from the molar mass of the structure shown. One block for each compound: values may come before it.

Assays:
[1] = tested on: androgen-dependent prostate cancer LNCaP cells; experiment: Neutral red uptake cell viability assay, LNCaP cells; format: cell-based; conditions: Homo sapiens, 48 h; for viability at 50 µg/mL: 50 μg/mL, vs DMSO control; for IC50: neutral red uptake
Protocol: (§1) Figure 4 Concentration-response curves showing the effect of Ferula penninervis methanolic root extract against gastrointestinal cancer cells (A), prostate cancer cells (B), skin cancer cells (C) and non-cancer cells (D) and the effect of isolated sesquiterpene lactones against prostate cancer LNCaP cells (E) and prostate epithelial PNT2 cells (F). Cells were seeded in 96-well plates (3 × 10^3/well) and treated with increasing concentrations of extract (12.5–200 μg/mL) or sesquiterpene lactones (3.125–50 μg/mL); after 48 h, the cell viability was evaluated using neutral red uptake assay. Data are expressed as percentage change in viability in comparison to the vehicle (DMSO) treated control group. Each point represents the mean ± S.E.M. of three independent experiments performed in triplicates.
Androgen-dependent prostate cancer (derived from lymph node metastasis) LNCaP (ATCC® CRL-1740), androgen-insensitive prostate cancer (derived from brain metastasis) DU145 (ATCC® HTB-81), androgen-insensitive prostate cancer (derived from bone metastasis) PC3 (ATCC® CRL-1435) and prostate epithelial PNT2 (ECACC® 95012613) cell lines were kindly provided by Dr. Vera Knäuper, School of Dentistry, Cardiff University (Cardiff, UK), whereas human colorectal carcinoma Caco-2 (ATCC® HTB-37) cell line was provided by Dr. Konrad Szychowski (University of Information Technology and Management, Rzeszów, Poland). Human gastric cancer (derived from liver metastasis) N87 (ATCC® CRL-5822), human colorectal cancer HT-29 (ATCC® HTB-38), human malignant melanoma A375 (ATCC CRL-1619), human squamous cell cancer SCC-15 (ATCC® CRL-1623) cell lines, murine melanoma B16F10 (ATCC® CRL-6475) and human skin BJ fibroblast (ATCC® CRL-2522) cell lines were purchased from LGC Standards (Łomianki, Poland), whilst immortalized human keratinocyte HaCaT cell lines were bought from Cell Lines Service (CLS) GmbH (Eppelheim, Germany).
LNCaP, PNT2 and N87 cells were grown in RPMI-1640 medium; PC3 cells were cultured in Ham’s F12; DU145, Caco-2 and BJ cells were maintained in EMEM. SCC-15 cell line was grown in DMEM:F12, whilst B16F10, HaCaT and HT-29 cell lines were maintained in DMEM. All conditioned media were supplemented with 10% FBS for all cell lines, except for Caco-2 cells which were grown in EMEM supplemented with 20% FBS. The cells were cultured at 37 °C in a humidified atmosphere with 5% CO2.
(§2) Neutral red uptake (NRU) assay was performed as described by Repetto et al.. Briefly, cells were seeded in 96-well plates (3 × 10^3 cells/well) and grown overnight. The cells were then treated with increasing concentrations of F. penninervis crude extract (12.5–200 µg/mL) and isolated compounds (3.125–50 µg/mL) or the positive control 5-FU (1 µg/mL). The control cells were grown in appropriate culture medium containing equal volume of the used solvent (DMSO). After 48 h, the cells were incubated for 3 h with neutral red solution (33 µg/mL) in conditioned medium containing 1% FBS. […] The absorbance of the released neutral red was measured at λ = 540 nm using FilterMax F5 microplate reader and corrected by the absorbance at λ = 620 nm. The mean measured value for the lysate from control cells was set as 100% cellular viability and used to calculate the percentage of viable cells following extracts treatment.
(§3) All experiments were performed in triplicate and the results were expressed as mean ± standard error of mean (SEM). […]

[2] = tested on: B16F10 cells; conditions: cited from earlier work
[3] = tested on: B16F10 cells; design: method as in doi:10.1186/s13765-019-0468-7; conditions: 3 and 6 μM; cited from earlier work
[4] = tested on: αMSH-stimulated murine melanoma B16F10 cells; experiment: Melanin release in conditioned medium of αMSH-stimulated B16F10 cells; format: cell-based; conditions: αMSH 10 nM, 72 h; for melanin release in the medium: 10 μg/mL
Protocol: (§4) Figure 5 Influence of Ferula penninervis root extract and isolated sesquiterpene lactones on melanin release in conditioned medium (A), melanin content in cell lysate (B) and cell viability (C) in α-MSH-stimulated murine melanoma B16F10 cells. B16F10 cells were seeded in 6-well plates (0.5 × 10^5/well) and treated with extract (100 μg/mL) or sesquiterpene lactones (10 μg/mL); melanin production was stimulated with α-MSH (10 nM). Kojic acid (100 μg/mL) was used as positive control. After 72 h, the melanin release/content and cell viability were assessed. Data are expressed as the percentage of melanin release/content in comparison with α-MSH stimulated control cells (α-MSH+) (A,B) or as percentage change in viability in comparison to the vehicle (DMSO) treated control group (C). Each point represents the mean ± S.E.M. of three independent experiments performed in triplicates; # p < 0.001 vs. non-stimulated control cells (αMSH-); ** p < 0.01; *** p < 0.001 vs. αMSH+ cells.
B16F10 cells were plated in 6-well plates (0.5 × 10^5 cells/well) and grown overnight. The cells were treated with F. penninervis crude extract (100 µg/mL), isolated compounds (10 µg/mL) or the positive control kojic acid (100 μg/mL). Melanin production was stimulated with α-MSH (10 nM). Following 72 h, the conditioned medium and cell pellets were collected. Cell pellets were dissolved in 1 N NaOH and incubated for 2 h at 80 °C. Conditioned media and cell lysates were then transferred to a 96-well plate and the absorbance was measured at λ = 405 nm using FilterMax F5 microplate reader. The content of protein in cell lysates was establish using Bradford assay. The melanin released in the conditioned medium and the melanin content in cell lysates (μg melanin/mg protein) were calculated with the help synthetic melanin calibration curves. The melanin release/content was expressed as the percentage of melanin release/content in comparison with α-MSH stimulated control cells without the tested samples.

[5] = tested on: MCF-7 cells; design: method as in PMID 24320993; conditions: cited from earlier work
[6] = tested on: erythroleukemia K562 cells; design: method as in PMID 24320993; conditions: cited from earlier work
[7] = tested on: αMSH-stimulated murine melanoma B16F10 cells; experiment: Melanin content in cell lysate of αMSH-stimulated B16F10 cells; format: cell-based; conditions: 100 μg/mL, αMSH 10 nM, 72 h
Protocol: as §4, with “Each point represents the mean ± S.E.M. of three independent experiments performed in triplicates; # p < 0.001 vs. non-stimulated control cells (αMSH-); ** p < 0.01; *** p < 0.001 vs. αMSH+ cells.” left out
B16F10 cells were plated in 6-well plates (0.5 × 10^5 cells/well) and grown overnight. […] Conditioned media and cell lysates were then transferred to a 96-well plate and the absorbance was measured at λ = 405 nm using FilterMax F5 microplate reader. […] The melanin released in the conditioned medium and the melanin content in cell lysates (μg melanin/mg protein) were calculated with the help synthetic melanin calibration curves. The melanin release/content was expressed as the percentage of melanin release/content in comparison with α-MSH stimulated control cells without the tested samples.

[8] = tested on: prostate epithelial PNT2 cells; experiment: Neutral red uptake cell viability assay, PNT2 cells; format: cell-based; conditions: 48 h
Protocol: as §1, with “triplicates. […]” for “triplicates.”
Neutral red uptake (NRU) assay was performed as described by Repetto et al.. […] The absorbance of the released neutral red was measured at λ = 540 nm using FilterMax F5 microplate reader and corrected by the absorbance at λ = 620 nm. The mean measured value for the lysate from control cells was set as 100% cellular viability and used to calculate the percentage of viable cells following extracts treatment.
as §3

[9] = tested on: αMSH-stimulated murine melanoma B16F10 cells; experiment: Neutral red uptake viability at 72 h in αMSH-stimulated B16F10 cells; format: cell-based; conditions: extract 100 μg/mL, lactones 10 μg/mL, kojic acid 100 μg/mL, vs αMSH- cells
Protocol: To evaluate the effects of F. penninervis methanolic root extract and its isolated guaiane-type sesquiterpene lactones on the melanin synthesis and release, the melanin assay was carried out. For this purpose, the production of melanin in murine melanoma B16F10 cells was stimulated with αMSH. […] Furthermore, to exclude the possibility that the observed inhibitory effects on the melanin production might have resulted through a reduced number of viable cells, neutral red uptake assay at 72 h was performed (Figure 5C and Figure S17). […] To our knowledge, there are no previous studies reporting the melanin production inhibitory potential of Ferula genus or isolated constituents. Nevertheless, the anti-melanogenic effects of different phytochemicals were repeatedly evidenced in various cell-based assays.
as §4, §2

SMILES: O=c1[nH]cc(F)c(=O)[nH]1 [5-FU, 5-Fluorouracil, reference compound]
viability at 5 µg/mL ([1]; positive control at 5 μg/mL): 50.6 ± 3.28%

SMILES: COc1cc(/C=C/C(=O)N2CCC=CC2=O)cc(OC)c1OC [Piperlongumine]
total melanin production ([2]; 3 and 6 μM): significantly reduced the total melanin production
effect on cell growth [3]: no inhibitory effects on the cell growth

SMILES: CC=C(C)C(=O)OC1CC(C)=C2C(=O)C=C(C)C2C2OC(=O)C(C)(OC(=O)C(C)C)C12 (stereo not drawn) [daucoguaianolactone F, daucoguainolactone F]
melanin release in the medium [4]: inactive

SMILES: C=C1C(=O)O[C@@H]2[C@H]1CC[C@]1(C)[C@H](OC(=O)/C(C)=C/C)C=CC(=C)[C@@H]21 [dehydrooopodin]
IC50 [5]: 15 µM
IC50 [6]: 5 µM

SMILES: CC1=CC(=O)C2=C(C)C[C@H](OC(=O)C(C)C)[C@@H]3[C@@H](OC(=O)[C@@]3(C)OC(=O)C(C)C)[C@H]12 [ferupennin Q, 2-oxo-8α,11α-diisobutyroyloxy-5βH,6αH,7αH-gua-1(10),3-diene-6,12-olide]
melanin release in the medium [4]: inactive

SMILES: O=c1cc(CO)occ1O [kojic acid, reference compound]
melanin release in the conditioned medium ([4]; 100 μg/mL): 35.88 ± 3.45 % of αMSH+ control cells
melanin content in the cell lysate [7]: but not the melanin content

IC50 [1]: 23.3 mg/L (≈ 57.8 µM)
SMILES: C/C=C(/C)C(=O)O[C@H]1CC(C)=C2C(=O)C=C(C)[C@H]2[C@@H]2OC(=O)[C@@](C)(OC(C)=O)[C@@H]21 [laferin]
cell survival ([8]; 50 µg/mL (highest tested concentration)): 53.85 ± 1.71%
viability of B16F10 cells [9]: without influencing the viability of B16F10 cells
viability at 50 µg/mL [1]: 14.4 ± 1.69%

SMILES: C=C(C)C(=O)O[C@H]1CC(C)=C2C(=O)C=C(C)[C@H]2[C@@H]2OC(=O)[C@@](C)(OC(=O)C(C)C)[C@@H]21 [oferin]
viability of B16F10 cells [9]: without influencing the viability of B16F10 cells

IC50 [1]: 31 mg/L (≈ 79.9 µM)
SMILES: C=C(C)C(=O)O[C@H]1CC(C)=C2C(=O)C=C(C)[C@H]2[C@@H]2OC(=O)[C@@](C)(OC(C)=O)[C@@H]21 [olgin]
effect on viability of PNT2 control cells ([8]; 3.125–50 μg/mL): did not significantly affect the viability
viability of B16F10 cells [9]: without influencing the viability of B16F10 cells
viability at 50 µg/mL [1]: 43.1 ± 3.52%
melanin release in the medium [4]: 40.67–65.48 % of αMSH+ control cells

SMILES: C=C(C)C(=O)O[C@H]1CC(C)=C2C(=O)C=C(C)[C@H]2[C@@H]2OC(=O)[C@@](C)(OC(=O)C(=C)C)[C@@H]21 [olgoferin]
viability of B16F10 cells [9]: without influencing the viability of B16F10 cells

SMILES: C[C@@H]1O[C@@H](O[C@@H]2[C@@H](O)[C@H](O)[C@@H](CO)O[C@H]2c2c(O)cc(O)c3c(=O)cc(-c4ccc(O)cc4)oc23)[C@H](O)[C@H](O)[C@H]1O [vitexin-2ʺ-O-rhamnoside]
decrease of intracellular melanin production compared to untreated cells ([2]; 5 μM): threefold
